# From patent US7205394B2, “Clathrate of azithromycin hydrate with 1,2-propyleneglycol, method for the manufacture thereof and pharmaceutical composition comprising same” (Hanmi Pharm. Co., Ltd., priority 2001, dated 2007)
# Where two headings read alike, the source gives them in different places.
# What was measured:
# rat = conditions: oral administration in rat; cited from earlier work
# [1] = Hygroscopic properties: exposure to relative humidity, water content by Karl Fischer method; format: physicochemical; conditions: for Found-Calculated (Difference, %) / Range of Difference (%) / Water content, relative humidity 25% / Water content, relative humidity 50% / Water content, relative humidity 75% / Water content, relative humidity 100%: 7 days; for Found-Calculated (Difference, %) / Range of Difference (%): relative humidity 25-100%; for Found-Calculated (Difference, %) (number in parenthesis) / Range of Difference (%) (number in parenthesis): after 3 days at the corresponding relative humidity; for Water content at onset: before exposure, 7-day series; for Water content at onset / Water content, relative humidity 25% / Water content, relative humidity 50% / Water content, relative humidity 75% / Water content, relative humidity 100%: Karl Fischer; for Water content at onset (number in parenthesis): parenthesis = 3-day series; for Water content, relative humidity 50% (number in parenthesis) / Water content, relative humidity 75% (number in parenthesis) / Water content, relative humidity 100% (number in parenthesis) / Water content, relative humidity 25% (33%) (number in parenthesis): after 3 days; for Water content, relative humidity 25% (33%) (number in parenthesis): relative humidity (33%); for Calculated water content (%): theoretical, for (1) based on m = 1.5 and n = 0.30 in formula (I)
# Method: Also, the hygroscopic properties of each of the compound obtained in Example 1 (1), azithromycin dihydrate (2), monohydrate (3), and anhydride (4) were determined by exposing each sample to a relative humidity of each 25%, 50%, […] thereof by the Karl Fischer method.
# [2] = prior art forms, background section, cited from earlier work
smiles,measurement,setting,value
"CC(O)CO (centres unmarked) [1,2-propyleneglycol]",LD50,rat,25 mL/kg
"CC[C@H]1OC(=O)[C@H](C)[C@@H](O[C@H]2C[C@@](C)(OC)[C@@H](O)[C@H](C)O2)[C@H](C)[C@@H](O[C@@H]2O[C@H](C)C[C@H](N(C)C)[C@H]2O)[C@](C)(O)C[C@@H](C)CN(C)[C@H](C)[C@@H](O)[C@]1(C)O [(2), azithromycin dihydrate]","Found-Calculated (Difference, %)",[1]; dihydrate,−0.4~+1.51%
same,Range of Difference (%),[1]; dihydrate,1.91%
same,"Found-Calculated (Difference, %) (number in parenthesis)",[1]; dihydrate,(−2.1~+0.6) %
same,Range of Difference (%) (number in parenthesis),[1]; dihydrate,2.7%
same,Water content at onset,[1]; dihydrate,4.58%
same,Water content at onset (number in parenthesis),[1]; dihydrate,4.1%
same,"Water content, relative humidity 25%",[1]; dihydrate,4.20%
same,"Water content, relative humidity 50%",[1]; dihydrate,4.25%
same,"Water content, relative humidity 50% (number in parenthesis)",[1]; dihydrate,4.6%
same,"Water content, relative humidity 75%",[1]; dihydrate,5.10%
same,"Water content, relative humidity 75% (number in parenthesis)",[1]; dihydrate,4.6%
same,"Water content, relative humidity 100%",[1]; dihydrate,6.11%
same,"Water content, relative humidity 100% (number in parenthesis)",[1]; dihydrate,5.2%
same,"Water content, relative humidity 25% (33%) (number in parenthesis)",[1]; dihydrate,2.5%
same,Calculated water content (%),[1]; dihydrate,4.60%
same,Hygroscopic property (in words),[2]; dihydrate,less hydroscopic than the monohydrate
"CC[C@H]1OC(=O)[C@H](C)[C@@H](O[C@H]2C[C@@](C)(OC)[C@@H](O)[C@H](C)O2)[C@H](C)[C@@H](O[C@@H]2O[C@H](C)C[C@H](N(C)C)[C@H]2O)[C@](C)(O)C[C@@H](C)CN(C)[C@H](C)[C@@H](O)[C@]1(C)O [(3), azithromycin monohydrate]","Found-Calculated (Difference, %)",[1]; monohydrate,+1~+3.94%
same,Range of Difference (%),[1]; monohydrate,3.94%
same,"Found-Calculated (Difference, %) (number in parenthesis)",[1]; monohydrate,(−0.05~+4.84) %
same,Range of Difference (%) (number in parenthesis),[1]; monohydrate,4.9%
same,Water content at onset,[1]; monohydrate,2.30%
same,Water content at onset (number in parenthesis),[1]; monohydrate,3.2%
same,"Water content, relative humidity 25%",[1]; monohydrate,3.35%
same,"Water content, relative humidity 50%",[1]; monohydrate,5.13%
same,"Water content, relative humidity 50% (number in parenthesis)",[1]; monohydrate,5.6%
same,"Water content, relative humidity 75%",[1]; monohydrate,5.41%
same,"Water content, relative humidity 75% (number in parenthesis)",[1]; monohydrate,6.6%
same,"Water content, relative humidity 100%",[1]; monohydrate,6.29%
same,"Water content, relative humidity 100% (number in parenthesis)",[1]; monohydrate,7.2%
same,"Water content, relative humidity 25% (33%) (number in parenthesis)",[1]; monohydrate,2.3%
same,Calculated water content (%),[1]; monohydrate,2.35%
"CC[C@H]1OC(=O)[C@H](C)[C@@H](O[C@H]2C[C@@](C)(OC)[C@@H](O)[C@H](C)O2)[C@H](C)[C@@H](O[C@@H]2O[C@H](C)C[C@H](N(C)C)[C@H]2O)C(C)(O)C[C@H](C)CN(C)[C@H](C)[C@@H](O)[C@]1(C)O (some centres unmarked) [(4), 9-deoxo-9a-aza-9a-methyl-9a-homoerythromycin A]","Found-Calculated (Difference, %)",[1],+1.11~+7.00%
same,Range of Difference (%),[1],7.00%
same,Water content at onset,[1],0.22%
same,"Water content, relative humidity 25%",[1],1.11%
same,"Water content, relative humidity 50%",[1],2.85%
same,"Water content, relative humidity 75%",[1],4.33%
same,"Water content, relative humidity 100%",[1],7.00%
same,Calculated water content (%),[1],0.00%
same,Hygroscopic property (in words),[2],highly hygroscopic
